Measured values taken from the supplement of paper PMC10307832.

Legend:
Assay in all cases: relative viability (nuclei count vs DMSO), 5 days (fraction); higher = more cells survive
Avagacestat + Pictilisib = compound: NC(=O)[C@@H](CCC(F)(F)F)N(Cc1ccc(-c2ncon2)cc1F)S(=O)(=O)c1ccc(Cl)cc1 [Avagacestat] + CS(=O)(=O)N1CCN(Cc2cc3nc(-c4cccc5[nH]ncc45)nc(N4CCOCC4)c3s2)CC1 [Pictilisib] (partner 1 µM)
In short: (§1)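 The day after seeding in 1536-well plates, lung cancer cell lines were treated by pin tool with a single drug, or with a fixed anchor-drug dose together with five library-drug doses (not always all listed) in √10 steps. After 5 days, a combined fix-and-stain solution (final 0.05% Triton X-100, 1% formaldehyde, 1 ug/ml Hoechst) was added. Nuclei counted on 4× images gave relative viability as treated counts over vehicle counts, reported as the median of duplicate plates.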

Avagacestat + Phenformin = compound: NC(=O)[C@@H](CCC(F)(F)F)N(Cc1ccc(-c2ncon2)cc1F)S(=O)(=O)c1ccc(Cl)cc1 [Avagacestat] + N=C(N)NC(=N)NCCc1ccccc1 [Phenformin] (partner 250 µM)
In short: as §1

Avagacestat + Decitabine = compound: NC(=O)[C@@H](CCC(F)(F)F)N(Cc1ccc(-c2ncon2)cc1F)S(=O)(=O)c1ccc(Cl)cc1 [Avagacestat] + Nc1ncn([C@H]2C[C@H](O)[C@@H](CO)O2)c(=O)n1 [Decitabine] (partner 2 µM)
In short: as §1

[1] = compound: NC(=O)[C@@H](CCC(F)(F)F)N(Cc1ccc(-c2ncon2)cc1F)S(=O)(=O)c1ccc(Cl)cc1 [Avagacestat] + CC(=O)c1c(C)c2cnc(Nc3ccc(N4CCNCC4)cn3)nc2n(C2CCCC2)c1=O [Palbociclib] (partner 0.5 µM)
In short: as §1

Row | Cell Line | relative viability (Avagacestat + Pictilisib; first compound 0.08 µM) | relative viability (Avagacestat + Pictilisib; first compound 0.253 µM) | relative viability (Avagacestat + Pictilisib; first compound 0.8 µM) | relative viability (Avagacestat + Pictilisib; first compound 2.53 µM) | relative viability (Avagacestat + Pictilisib; first compound 8 µM) | relative viability (Avagacestat + Phenformin; first compound 0.08 µM) | relative viability (Avagacestat + Phenformin; first compound 0.253 µM) | relative viability (Avagacestat + Phenformin; first compound 0.8 µM) | relative viability (Avagacestat + Phenformin; first compound 2.53 µM) | relative viability (Avagacestat + Phenformin; first compound 8 µM) | relative viability (Avagacestat + Decitabine; first compound 0.08 µM) | relative viability (Avagacestat + Decitabine; first compound 0.253 µM) | relative viability (Avagacestat + Decitabine; first compound 0.8 µM) | relative viability (Avagacestat + Decitabine; first compound 2.53 µM) | relative viability (Avagacestat + Decitabine; first compound 8 µM) | relative viability ([1]; first compound 0.08 µM) | relative viability ([1]; first compound 0.253 µM) | relative viability ([1]; first compound 0.8 µM) | relative viability ([1]; first compound 2.53 µM) | relative viability ([1]; first compound 8 µM)
1 | LU99A | 0.282 | 0.325 | 0.341 | 0.277 | 0.307 | 0.867 | 0.944 | 0.923 | 0.821 | 0.902 | 0.835 | 0.98 | 0.964 | 0.772 | 0.816 | 0.407 | 0.429 | 0.472 | 0.414 | 0.366
2 | LXF-289 | 0.786 | 0.857 | 0.781 | 0.753 | 0.66 | 0.516 | 0.505 | 0.495 | 0.495 | 0.476 | 0.359 | 0.368 | 0.408 | 0.347 | 0.331 | 0.624 | 0.613 | 0.612 | 0.578 | 0.582
3 | NCI-H1395 | 0.601 | 0.735 | 0.658 | 0.488 | 0.702 | 0.424 | 0.456 | 0.432 | 0.45 | 0.457 | 0.719 | 0.717 | 0.67 | 0.692 | 0.681 | 0.675 | 0.64 | 0.594 | 0.486 | 0.593
4 | NCI-H596 | 0.414 | 0.43 | 0.395 | 0.354 | 0.374 | 0.78 | 0.717 | 0.867 | 0.699 | 0.653 | 1.09 | 1.01 | 1.28 | 0.906 | 0.928 |  |  |  |  | 
5 | 201T | 0.737 | 0.7 | 0.664 | 0.691 | 0.661 | 0.55 | 0.514 | 0.471 | 0.424 | 0.424 | 0.861 | 0.885 | 0.888 | 0.801 | 0.767 | 0.361 | 0.307 | 0.382 | 0.331 | 0.352
6 | NCI-H1944 | 0.349 | 0.374 | 0.357 | 0.32 | 0.33 | 0.231 | 0.236 | 0.226 | 0.18 | 0.204 | 0.452 | 0.475 | 0.402 | 0.406 | 0.428 | 0.32 | 0.343 | 0.265 | 0.272 | 0.269
7 | NCI-H3122 | 0.723 | 0.751 | 0.748 | 0.715 | 0.607 | 0.405 | 0.391 | 0.428 |  | 0.405 | 0.513 | 0.428 | 0.445 | 0.402 | 0.37 | 0.198 | 0.191 | 0.248 | 0.221 | 0.182
8 | NCI-H1734 | 0.538 | 0.483 | 0.462 | 0.419 | 0.418 | 0.451 | 0.433 | 0.366 | 0.373 | 0.384 | 0.608 | 0.499 | 0.482 | 0.482 | 0.491 | 0.384 | 0.335 | 0.399 | 0.301 | 0.328
